Source: patent US8822503B2, “2-pyridone compounds” (Taisho Pharmaceutical Co., Ltd, priority 2009, dated 2014)

Each molecule was assayed against T1, human liver GK (Homo sapiens, UniProt P35557) (assay: GK activation test). Details: test compound concentration needed to activate 50% of maximum activation ability; 4 mM 14C-labeled glucose, 2 mM ATP, room temperature, 20 minutes.
T1 construct: GST (glutathione S-transferase) (N); made in house; host or cells: E. coli
T1 sequence (P35557 1-466 isoform P35557-2): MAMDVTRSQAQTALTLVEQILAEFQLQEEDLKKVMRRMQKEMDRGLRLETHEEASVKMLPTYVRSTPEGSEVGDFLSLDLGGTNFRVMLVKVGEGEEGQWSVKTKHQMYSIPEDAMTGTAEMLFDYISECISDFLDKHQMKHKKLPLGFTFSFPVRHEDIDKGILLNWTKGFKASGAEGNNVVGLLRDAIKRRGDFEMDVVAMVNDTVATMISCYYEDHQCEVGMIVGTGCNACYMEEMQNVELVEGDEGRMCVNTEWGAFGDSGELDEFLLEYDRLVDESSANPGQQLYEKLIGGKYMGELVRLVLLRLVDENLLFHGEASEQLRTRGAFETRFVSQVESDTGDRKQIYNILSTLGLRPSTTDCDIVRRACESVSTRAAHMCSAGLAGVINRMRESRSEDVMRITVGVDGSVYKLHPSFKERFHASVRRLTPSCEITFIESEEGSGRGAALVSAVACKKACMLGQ
Format: biochemical
In short: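 GST-tagged human liver GK from E. coli (0.24 μg/well) with 4 mM 14C-glucose, 2 mM ATP in Hepes-KOH pH 7.1, KCl, MgCl2, DTT, 1% DMSO, 20 min room temperature. Labeled glucose 6-phosphate captured on anion resin, eluted and counted. EC50 = concentration giving half of maximal activation.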

SMILES | EC50
CCCOc1ccc(/C(=C/[C@H]2CCC(=O)N2)c2ccc(C(C)(C)C)cc2)[nH]c1=O [Example 4-167, 6-{(E)-1-(4-tert-Butylphenyl)-2-[(2R)-5-oxopyrrolidin-2-yl]ethenyl}-3-propoxypyridin-2(1H)-one] | 500 to 3000 nM
O=C1CC[C@H](/C=C(\c2ccc(C(F)(F)F)cc2)c2ccc(OC3CCCC3)c(=O)[nH]2)N1 [Example 4-168, 3-(Cyclopentyloxy)-6-{(E)-2-[(2R)-5-oxopyrrolidin-2-yl]-1-[4-(trifluoromethyl)phenyl]ethenyl}pyridin-2(1H)-one] | 500 to 3000 nM
O=C1CC[C@H](/C=C(\c2ccc(Cl)cc2)c2ccc(OCCCO)c(=O)[nH]2)N1 [Example 4-169, 6-{(E)-1-(4-Chlorophenyl)-2-[(2R)-5-oxopyrrolidin-2-yl]ethenyl}-3-(3-hydroxypropoxy)pyridin-2(1H)-one] | 3000 to 10000 nM
O=C1CC[C@H](/C=C(\c2ccc(C(F)(F)F)cc2)c2ccc(OCCCO)c(=O)[nH]2)N1 [Example 4-170, 3-(3-Hydroxypropoxy)-6-{(E)-2-[(2R)-5-oxopyrrolidin-2-yl]-1-[4-(trifluoromethyl)phenyl]ethenyl}pyridin-2(1H)-one] | 3000 to 10000 nM
CC(C)(CO)COc1ccc(/C(=C/[C@H]2CCC(=O)N2)c2ccc(C(F)(F)F)cc2)[nH]c1=O [Example 4-171, 3-(3-Hydroxy-2,2-dimethylpropoxy)-6-{(E)-2-[(2R)-5-oxopyrrolidin-2-yl]-1-[4-(trifluoromethyl)phenyl]ethenyl}pyridin-2(1H)-one] | 3000 to 10000 nM
O=C1CC[C@H](/C=C(\c2ccc(C(F)(F)F)cn2)c2ccc(C3CC3)c(=O)[nH]2)N1 [Example 4-172, 3-Cyclopropyl-6-{(Z)-2-[(2R)-5-oxopyrrolidin-2-yl]-1-[5-(trifluoromethyl)pyridin-2-yl]ethenyl}pyridin-2(1H)-one] | 500 to 3000 nM
CC(C)(C)c1ccc(/C(=C\[C@H]2CCC(=O)N2)c2ccc(N)c(=O)[nH]2)cc1 [Example 4-173, 3-Amino-6-{(E)-1-(4-tert-butylphenyl)-2-[(2R)-5-oxopyrrolidin-2-yl]ethenyl}pyridin-2(1H)-one] | 500 to 3000 nM
CN(C)c1ccc(/C(=C/[C@H]2CCC(=O)N2)c2ccc(C(C)(C)C)cc2)[nH]c1=O [Example 4-174, 6-{(E)-1-(4-tert-Butylphenyl)-2-[(2R)-5-oxopyrrolidin-2-yl]ethenyl}-3-(dimethylamino)pyridin-2(1H)-one] | 10 to 500 nM
CC(=O)c1ccc(/C(=C/[C@H]2CCC(=O)N2)c2ccc(C(C)(C)C)cc2)[nH]c1=O [Example 4-175, 3-Acetyl-6-{(E)-1-(4-tert-butylphenyl)-2-[(2R)-5-oxopyrrolidin-2-yl]ethenyl}pyridin-2(1H)-one] | 500 to 3000 nM
CCc1ccc(/C(=C/[C@H]2CCC(=O)N2)c2ccc(C(C)(C)C)cc2)[nH]c1=O [Example 4-176, 6-{(E)-1-(4-tert-Butylphenyl)-2-[(2R)-5-oxopyrrolidin-2-yl]ethenyl}-3-ethylpyridin-2(1H)-one] | 10 to 500 nM
CC(C)(C)c1ccc(/C(=C\[C@H]2CCC(=O)N2)c2ccc(Br)c(=O)[nH]2)cc1 [Example 4-177, 3-Bromo-6-{(E)-1-(4-tert-butylphenyl)-2-[(2R)-5-oxopyrrolidin-2-yl]ethenyl}pyridin-2(1H)-one] | 10 to 500 nM
CC(C)(C)c1ccc(/C(=C\[C@H]2CCC(=O)N2)c2ccc(-c3ccccc3)c(=O)[nH]2)cc1 [Example 4-178, 6-{(E)-1-(4-tert-Butylphenyl)-2-[(2R)-5-oxopyrrolidin-2-yl]ethenyl}-3-phenylpyridin-2(1H)-one] | 10 to 500 nM
CC(C)(C)c1ccc(/C(=C\[C@H]2CCC(=O)N2)c2ccc(-c3ccncc3)c(=O)[nH]2)cc1 [Example 4-179, 6-{(E)-1-(4-tert-Butylphenyl)-2-[(2R)-5-oxopyrrolidin-2-yl]ethenyl}-3,4′-bipyridin-2(1H)-one] | 10 to 500 nM
CC(C)(C)c1ccc(/C(=C\[C@H]2CCC(=O)N2)c2ccc(-c3cccnc3)c(=O)[nH]2)cc1 [Example 4-180, 6-{(E)-1-(4-tert-Butylphenyl)-2-[(2R)-5-oxopyrrolidin-2-yl]ethenyl}-3,3′-bipyridin-2(1H)-one] | 10 to 500 nM
Cc1nc(C)c(-c2ccc(/C(=C/[C@H]3CCC(=O)N3)c3ccc(C(C)(C)C)cc3)[nH]c2=O)s1 [Example 4-181, 6-{(E)-1-(4-tert-Butylphenyl)-2-[(2R)-5-oxopyrrolidin-2-yl]ethenyl}-3-(2,4-dimethyl-1,3-thiazol-5-yl)pyridin-2(1H)-one] | 500 to 3000 nM
CC(C)Cn1cc(-c2ccc(/C(=C/[C@H]3CCC(=O)N3)c3ccc(C(C)(C)C)cc3)[nH]c2=O)cn1 [Example 4-182, 6-{(E)-1-(4-tert-Butylphenyl)-2-[(2R)-5-oxopyrrolidin-2-yl]ethenyl}-3-[1-(2-methylpropyl)-1H-pyrazol-4-yl]pyridin-2(1H)-one] | 500 to 3000 nM
Cn1cc(-c2ccc(/C(=C/[C@H]3CCC(=O)N3)c3ccc(C(C)(C)C)cc3)[nH]c2=O)cn1 [Example 4-183, 6-{(E)-1-(4-tert-Butylphenyl)-2-[(2R)-5-oxopyrrolidin-2-yl]ethenyl}-3-(1-methyl-1H-pyrazol-4-yl)pyridin-2(1H)-one] | 10 to 500 nM
CC(C)(C)c1ccc(/C(=C\[C@H]2CCC(=O)N2)c2ccc(-c3cnoc3)c(=O)[nH]2)cc1 [Example 4-184, 6-{(E)-1-(4-tert-Butylphenyl)-2-[(2R)-5-oxopyrrolidin-2-yl]ethenyl}-3-(1,2-oxazol-4-yl)pyridin-2(1H)-one] | 10 to 500 nM
CC(C)(C)c1ccc(/C(=C\[C@H]2CCC(=O)N2)c2ccc(Oc3ccccc3)c(=O)[nH]2)cc1 [Example 4-185, 6-{(E)-1-(4-tert-Butylphenyl)-2-[(2R)-5-oxopyrrolidin-2-yl]ethenyl}-3-phenoxypyridin-2(1H)-one] | 10 to 500 nM
CC(C)(C)c1ccc(/C(=C\[C@H]2CCC(=O)N2)c2cccc(=O)[nH]2)cc1 [Example 4-186, 6-{(E)-1-(4-tert-Butylphenyl)-2-[(2R)-5-oxopyrrolidin-2-yl]ethenyl}pyridin-2(1H)-one] | 500 to 3000 nM
Cc1ccc(Oc2ccc(/C(=C/[C@H]3CCC(=O)N3)c3ccc(C(C)(C)C)cc3)[nH]c2=O)cc1 [Example 4-187, 6-{(E)-1-(4-tert-Butylphenyl)-2-[(2R)-5-oxopyrrolidin-2-yl]ethenyl}-3-(4-methylphenoxy)pyridin-2(1H)-one] | 500 to 3000 nM
CC(C)(C)c1ccc(/C(=C\[C@H]2CCC(=O)N2)c2ccc(Oc3ccc(Cl)cc3)c(=O)[nH]2)cc1 [Example 4-188, 6-{(E)-1-(4-tert-Butylphenyl)-2-[(2R)-5-oxopyrrolidin-2-yl]ethenyl}-3-(4-chlorophenoxy)pyridin-2(1H)-one] | 500 to 3000 nM
CC(C)(C)c1ccc(/C(=C\[C@H]2CCC(=O)N2)c2ccc(Oc3ccc(C(F)(F)F)cc3)c(=O)[nH]2)cc1 [Example 4-189, 6-{(E)-1-(4-tert-Butylphenyl)-2-[(2R)-5-oxopyrrolidin-2-yl]ethenyl}-3-[4-(trifluoromethyl)phenoxy]pyridin-2(1H)-one] | 500 to 3000 nM
CC(C)(C)c1ccc(/C(=C\[C@H]2CCC(=O)N2)c2ccc(CCCCO)c(=O)[nH]2)cc1 [Example 4-190, 6-{(E)-1-(4-tert-Butylphenyl)-2-[(2R)-5-oxopyrrolidin-2-yl]ethenyl}-3-(4-hydroxybutyl)pyridin-2(1H)-one] | 10 to 500 nM
CN(C)CCCCc1ccc(/C(=C/[C@H]2CCC(=O)N2)c2ccc(C(C)(C)C)cc2)[nH]c1=O [Example 4-191, 6-{(E)-1-(4-tert-Butylphenyl)-2-[(2R)-5-oxopyrrolidin-2-yl]ethenyl}-3-[4-(dimethylamino)butyl]pyridin-2(1H)-one] | 500 to 3000 nM
CCCc1ccc(/C(=C/[C@H]2CCC(=O)N2)c2ccc(C(C)(C)C)cc2)[nH]c1=O [Example 4-192, 6-{(E)-1-(4-tert-Butylphenyl)-2-[(2R)-5-oxopyrrolidin-2-yl]ethenyl}-3-propylpyridin-2(1H)-one] | 10 to 500 nM
CCCCCc1ccc(/C(=C/[C@H]2CCC(=O)N2)c2ccc(C(C)(C)C)cc2)[nH]c1=O [Example 4-193, 6-{(E)-1-(4-tert-Butylphenyl)-2-[(2R)-5-oxopyrrolidin-2-yl]ethenyl}-3-pentylpyridin-2(1H)-one] | 10 to 500 nM
CC(C)(C)c1ccc(/C(=C\[C@H]2CCC(=O)N2)c2ccc(C3CCCC3)c(=O)[nH]2)cc1 [Example 4-194, 6-{(E)-1-(4-tert-Butylphenyl)-2-[(2R)-5-oxopyrrolidin-2-yl]ethenyl}-3-cyclopentylpyridin-2(1H)-one] | 10 to 500 nM
CC(C)(C)c1ccc(/C(=C\[C@H]2CCC(=O)N2)c2ccc(CCC3CCCCC3)c(=O)[nH]2)cc1 [Example 4-195, 6-{(E)-1-(4-tert-Butylphenyl)-2-[(2R)-5-oxopyrrolidin-2-yl]ethenyl}-3-(2-cyclohexylethyl)pyridin-2(1H)-one] | 10 to 500 nM
CC(C)(C)c1ccc(/C(=C\[C@H]2CCC(=O)N2)c2ccc(CCc3ccccc3)c(=O)[nH]2)cc1 [Example 4-196, 6-{(E)-1-(4-tert-Butylphenyl)-2-[(2R)-5-oxopyrrolidin-2-yl]ethenyl}-3-(2-phenylethyl)pyridin-2(1H)-one] | 10 to 500 nM
